{
  "source": "patent US20070031415A1",
  "about": "“Regulation of interaction between rapl and rap1” (priority 2002, published 2007)",
  "biological_target": "T1, binding between Rap1 and p30 (Homo sapiens, UniProt P62834+Q8WWW0)",
  "T1 construct": "made in house; 293T cells for Myc-p30 (crude lysate)",
  "T1 sequence (P62834 1-184)": "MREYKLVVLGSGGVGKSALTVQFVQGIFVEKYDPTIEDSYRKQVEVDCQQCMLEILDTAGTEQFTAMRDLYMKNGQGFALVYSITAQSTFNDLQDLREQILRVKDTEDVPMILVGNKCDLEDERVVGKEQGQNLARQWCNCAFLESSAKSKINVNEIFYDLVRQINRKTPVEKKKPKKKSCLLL",
  "T1 sequence (Q8WWW0 1-265 isoform Q8WWW0-2)": "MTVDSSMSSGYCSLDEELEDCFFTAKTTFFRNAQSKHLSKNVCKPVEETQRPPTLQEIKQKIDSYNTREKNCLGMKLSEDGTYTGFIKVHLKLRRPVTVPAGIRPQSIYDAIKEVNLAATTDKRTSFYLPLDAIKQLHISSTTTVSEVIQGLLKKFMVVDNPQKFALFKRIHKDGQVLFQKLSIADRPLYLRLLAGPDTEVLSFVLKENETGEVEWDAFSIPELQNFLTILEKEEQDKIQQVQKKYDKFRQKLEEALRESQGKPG",
  "assay": "Rap1-p30 binding inhibition assay (GST-Rap1 beads pull-down of Myc-p30 lysate, western blot)",
  "conditions": "1 μM compound, GTPγS-activated Rap1, reaction 4° C. 30 sec; FIG. 7",
  "method": "For a plasmid for production of GST-Rap1 fusion protein, pGEX-3× (product of Amersham Pharmacia Biotech) was used. The Rap1 coding sequence represented by SEQ ID NO:1 was inserted between BamHI and EcoRI restriction enzyme sites of the vector. At this time, two nucleotide pair CC were added in front of the 5′ terminal ATG of the nucleotide sequence represented by SEQ ID NO:1 for frame adjustment. […] GGATCCCCATG . . . 3′. The obtained plasmid for production of GST-Rap1 fusion protein was transfected into E. coli. The E. coli with the inserted plasmid was cultured, and GST-Rap1 protein was produced within E. coli cells by inducing the protein production with 0.2 mM IPTG (isopropylthiogalactopyranoside) (30° C., 2 hours). The E. coli cells were recovered by centrifugation, solubilized in a lysis buffer (100 mM NaCl, 50 mM Tris-HCl (pH 7.5), 1% Triton X100, 2 mM MgCl2, 0.1 TIU/ml Aprotinin), and disrupted by sonication. The solution was centrifuged, and then glutathione Sepharose 4B beads (product of Amersham) was added to the obtained supernatant and reacted at 4° C. for one hour to prepare GST-Rap1 beads.\nA plasmid of p30-Myc tag was introduced into 293T cells in 70% confluency by electroporation. […]\nThe bands visualized by exposing to the film for chemiluminescence were quantitated with use of image analyzing software (Win Roof, product of Mitani Corp.). […]",
  "data": [
    {"smiles": "CCS(=O)(=O)Nc1ncc(C(F)(F)F)cc1NC(=O)C1CCCCC1.O.[Na]", "note": "[compound 1, N-(2-ethylsulfonylamino-5-trifluoromethyl-3-pyridyl)cyclohexanecarboxamide monosodium salt monohydrate]", "values": [
      {"measurement": "p30 band volume (brightness×area) of p30 bound to activated GST-Rap1, compared to group without addition", "value": "significantly lower"}
    ]}
  ]
}
